Measured values as given in patent US20080242649A1, “New Combination 665” (priority 2007, published 2008).
Read-outs that look alike come from different tables or passages of the source.

What was measured:
[1] = test system: LPS-induced intra-alveolar neutrophilia; experiment: Intra-alveolar neutrophil migration after intratracheal LPS challenge in the CRL:CD rat; format: in vivo
Method: Evaluation of Compound Activity on Intra-Alveolar Neutrophil Migration after Intratracheal Challenge with Lipopolysacharride (LPS) in the CRL:CD Rat
LPS challenge in CRL:CD rats causes an influx of neutrophils into the lungs. Under recoverable gaseous anaesthesia (5% isoflorane in oxygen), rats were dosed via the intratracheal route with vehicle (0.05M phosphate, 0.1% Tween 80, 0.6% saline, pH 6), or compound 30 min before challenge with an intratracheal dose of 10 μg/kg LPS.
The rats (250-400 g) were euthanized 4 hr after LPS challenge with 1 mL pentobarbitone sodium. A tracheotomy was performed and a cannula inserted. The airway was then lavaged using 3 mL Isoton at room temperature. The Isoton (BeckmanCoulter, High Wycombe, UK) was left in the airway for 10 seconds before being removed. The bronchio-alveolar lavage (BAL) fluid containing inflammatory cells was placed into a 15 mL centrifuge tube and kept on ice. This process was repeated three times. An aliquot of BAL fluid was removed and the inflammatory cells were counted on Sysmex (Sysmex UK, Milton Keynes). Neutrophils were expressed in millions/animal (mean ±s.e.mean).

[2] = test system: histamine-induced bronchoconstriction; experiment: Lung function in anaesthetized guinea-pigs, histamine challenge; format: in vivo, Dunkin-Hartley guinea pig
Method: (§1) Evaluation of Lung Function in Anaesthetized Guinea-Pigs
(§2) Male Dunkin-Hartley guinea pigs (300-600 g) were weighed and dosed with vehicle (0.05M phosphate, 0.1% Tween 80, 0.6% saline, pH 6) or compound via the intratracheal route under recoverable gaseous anaesthesia (5% halothane in oxygen). Animals were dosed with compound or vehicle two hours prior to the administration of histamine or methacholine.
(§3) Guinea pigs were anaesthetized with pentobarbitone (1 mL/kg of 60 mg/mL solution i.p.) approximately 30 minutes prior to the first bronchoconstrictor administration. The trachea was cannulated and the animal ventilated using a constant volume respiratory pump (Harvard Rodent Ventilator model 683) at a rate of 60 breath/min and a tidal volume of 5 ml/kg. A jugular vein was cannulated for the administration of histamine, methacholine or maintenance anaesthetic (0.1 mL of pentobarbitone solution, 60 mg/mL, as required).
(§4) The animals were transferred to a Flexivent System (SCIREQ, Montreal, Canada) in order to measure airway resistance. The animals were ventilated (quasi-sinusoidal ventilation pattern) at 60 breaths/min at a tidal volume of 5 mL/kg. A positive end expiratory pressure of 2-3 cmH2O was applied. Respiratory resistance was measured using the Flexivent “snapshot” facility (1 second duration, 1 Hz frequency). Once stable baseline resistance value had been obtained the animals were given histamine or methacholine in ascending doses (0.5, 1, 2, 3 and 5 μg/kg, i.v.) at approximately 4-minute intervals via the jugular catheter. After each administration of bronchoconstrictor the peak resistance value was recorded. Guinea pigs were euthanized with approximately 1.0 mL pentobarbitone sodium (Euthatal) intravenously after the completion of the lung function measurements. Percentage bronchoprotection produced by a compound was calculated at each dose of brochoconstrictor as follows:
(§5) Where % change Rveh is the mean of the maximum percentage change in airway resistance in the vehicle treated group. The results reported were measured after 5 μg/kg histamine or methacholine and were expressed as percentage bronchoprotection (mean ±s.e.mean).

[3] = test system: guinea pig trachea; experiment: Bronchodilator onset in guinea pig isolated tracheal ring contracted with methacholine; conditions: roflumilast 1 μM alone
Method: Evaluation of Bronchodilator Activity in the Guinea Pig Isolated Tracheal Ring Preparation
Guinea pigs (300-500 g) were killed by cervical dislocation and the trachea was isolated. The trachea was cut into segments 2-3 cartilage rings in width and suspended in 10 ml organ baths in modified Krebs' solution (mM; NaCl, 90; NaHCO3, 45; KCl, 5; MgSO4.7H2O, 0.5; Na2HPO4.2H2O, 1; CaCl2, 2.25; glucose, 10; pH 7.4) gassed with 5% CO2, 95% […] at 37° C.). The tracheal rings were attached to an isometric force transducer for the measurement of isometric tension. The tissues were washed and a force of 1 g was applied to each tissue. The rings were contracted with methacholine (1 μM). Once the contraction had reached a plateau, vehicle (0.01% DMSO in distilled H2O), compound A (3 nM), roflumilast (1 μM) or a combination of compound A (3 nM) and roflumilast (1 μM) was added and the tissue left until the response had reached a plateau. Data were collected using the Chart 4 software (ADInstruments, Charlgrove, UK). The time to 90% of the maximum effect of the bronchodilator (onset time) was measured and expressed in min (mean ±s.e.mean).

[4] = test system: LPS-induced TNFα production; experiment: Inhibition of LPS-induced TNFα production in human PBMCs; format: cell-based; conditions: for inhibition at 0.03 µM: Homo sapiens, PBMC
Method: Inhibition of Lipopolysacchamide (LPS)-Induced TNFα Production in Human Peripheral Blood Mononuclear Cells
The cells were then incubated with LPS (1 μg/mL) for 4 hours at 37° C. to induce TNFα production. At the end of the incubation period, the plates were centrifuged (300 g, 10 minutes) and 100 μL of the culture supernatant was analysed to quantify the TNFα released using a Fluorescence-linked immunosorbance assay (FLISA) assay kit (R&D Systems). Fluorescence levels were read on an FMAT plate reader. Inhibition curves were fitted using a 4-parameter logistic equation in a non-linear curve fitting routine and activity was expressed as pIC50 (mean ±s.e.mean).

[5] = test system: methacholine-induced bronchoconstriction; experiment: Lung function in anaesthetized guinea-pigs, methacholine challenge; format: in vivo, Dunkin-Hartley guinea pig
Method: as §1, §2, §3, §4, §5

Q: Which inhibition of neutrophilia ([1]; budesonide 0.1 μg/kg intratracheal 30 min prior to LPS) does the source give for CCCC1O[C@@H]2C[C@H]3[C@@H]4CCC5=CC(=O)C=C[C@]5(C)[C@H]4[C@@H](O)C[C@]3(C)[C@]2(C(=O)CO)O1 (some centres unmarked) [Budesonide, reference compound] here?
A: 51%

Q: What about the “neutrophils in BAL” value ([1]; budesonide 0.1 μg/kg intratracheal, vehicle/LPS 14±1.6) of the same compound?
A: 7.1±0.77 million/animal

Q: With CNC(=O)c1cc(Cl)c(OC(C)(C)C(=O)O)cc1OC[C@@H](O)CN1CCC2(CC1)Cc1cc(Cl)ccc1O2 [Compound W, 2-{2-Chloro-5-{[(2S)-3-(5-chloro-1′H,3H-spiro[1-benzofuran-2,4′-piperidin]-1′-yl)-2-hydroxypropyl]oxy}-4-[(methylamino)carbonyl]phenoxy}-2-methylpropanoic acid] as the compound, how does the inhibition of neutrophilia ([1]; Compound W 3 ng/kg intratracheal) read?
A: 56%

Q: And the “neutrophils in BAL” value ([1]; Compound W 3 ng/kg, vehicle/LPS 11±1.8)?
A: 6.3±1.1 million/animal

Q: CC(=O)Nc1ccc(O)cc1OC[C@@](C)(O)CNC1CCN(Cc2ccc(Cl)cc2)CC1 [Compound X, N-{2-[((2S)-3-{[1-(4-chlorobenzyl)piperidin-4-yl]amino}-2-hydroxy-2-methylpropyl)oxy]-4-hydroxyphenyl}acetamide] was tested. Which inhibition of neutrophilia ([1]; Compound X 30 μg/kg intratracheal) did it give?
A: 30%

Q: And the “neutrophils in BAL” value ([1]; Compound X 30 μg/kg, vehicle/LPS 12±1.7)?
A: 8.5±0.75 million/animal

Q: O=C(Nc1c(Cl)cncc1Cl)c1ccc(OC(F)F)c(OCC2CC2)c1 [Roflumilast, 3-(cyclopropylmethoxy)-N-(3,5-dichloro-4-pyridinyl)-4-(difluoromethoxy)benzamide, reference compound] was tested. Which “inhibition of histamine-induced bronchoconstriction” value ([2]; roflumilast 1 mg/kg intratracheal 2 h before, histamine 5 μg/kg i.v.) did it give?
A: 35%

Q: And the increase in bronchoconstriction ([2]; roflumilast 1 mg/kg intratracheal, histamine 5 μg/kg, vehicle 1100±161%)?
A: 695±177%

Q: What about the “onset time (time to 90% of the maximum effect)” value [3] of the same compound?
A: 26 ± 1.4 min

Q: What about the inhibition at 0.03 µM ([4]; roflumilast 30 nM alone, PBMCs, LPS 1 μg/mL, read-out: inhibition of LPS-induced TNFα production) of the same compound?
A: 70 ± 4.1%

Q: And the inhibition at 0.03 µM ([4]; roflumilast 30 nM in the presence of 30 nM compound A, read-out: maximum inhibition of TNFα production)?
A: 92 ± 0.4%

Q: And the “maximum inhibition of TNFα production” value ([4]; roflumilast 30 nM in the presence of 3 nM compound A)?
A: 82±2.3%

Q: How did the increase in resistance ([5]; tiotropium bromide 0.03 pg/kg intratracheal, methacholine 5 μg/kg, vehicle 1898±211%) turn out when C[N+]1(C)[C@@H]2C[C@@H](OC(=O)C(O)(c3cccs3)c3cccs3)C[C@H]1[C@@H]1O[C@@H]12 [tiotropium bromide, reference compound] was run?
A: 1656±269%

Q: And the “inhibition of methacholine-induced bronchoconstriction” value ([5]; tiotropium bromide intratracheal 2 h before, methacholine 5 μg/kg i.v.)?
A: 13%
